Measured values from US7635572B2, “Methods for conducting assays for enzyme activity on protein microarrays” (Life Technologies Corporation, priority 2004, dated 2009).

molecular target: plurality of kinases (Table 5) (Homo sapiens, UniProt P06241); experiment: Further analysis of a plurality of inhibitors and a plurality of kinases on microarray (Example IX, Table 5); type: biochemical; details: plate A4, Domain 0; inhibitor 100 uM;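 note: inhibition of each kinase by the inhibitors is given as a qualitative level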;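 for Inhibition level, FGFR2: level 0 none or unclear then 1 little or marginal then 2 substantial inhibition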;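 for Inhibition level, FYN: level 0 no or unclear inhibition to Level 2 substantial inhibition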;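 for Inhibition level, STK13: level 0 no or unclear inhibition to Level 2 substantial inhibition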;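 for Inhibition level, STK6: level 0 no or unclear inhibition to Level 2 substantial inhibition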
Sequence (P06241 whole entry): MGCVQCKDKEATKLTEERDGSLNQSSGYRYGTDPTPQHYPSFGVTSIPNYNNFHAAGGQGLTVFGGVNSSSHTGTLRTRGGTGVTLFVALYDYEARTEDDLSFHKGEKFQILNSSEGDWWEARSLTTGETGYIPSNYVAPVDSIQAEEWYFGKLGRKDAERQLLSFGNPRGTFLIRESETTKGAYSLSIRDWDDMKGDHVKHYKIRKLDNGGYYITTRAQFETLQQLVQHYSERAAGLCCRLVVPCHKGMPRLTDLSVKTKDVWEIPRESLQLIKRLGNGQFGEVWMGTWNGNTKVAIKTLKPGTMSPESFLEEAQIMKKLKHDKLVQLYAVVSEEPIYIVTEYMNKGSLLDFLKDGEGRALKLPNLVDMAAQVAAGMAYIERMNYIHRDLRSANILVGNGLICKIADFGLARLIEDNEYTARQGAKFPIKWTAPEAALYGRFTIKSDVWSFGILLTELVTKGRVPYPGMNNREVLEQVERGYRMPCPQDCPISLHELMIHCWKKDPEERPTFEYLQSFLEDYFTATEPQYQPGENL

Point of comparison: `COc1cc2ncnc(Nc3cccc(Cl)c3)c2cc1OC` [AG 1478], “Inhibition level, FYN” value 2. Against it:
- O=S(=O)(NCCNC/C=C/c1ccc(Br)cc1)c1cccc2cnccc12 [H-89] — the same, 2
- CC(=O)c1c(O)c(C)c(O)c(Cc2c(O)c3c(c(C(=O)/C=C/c4ccccc4)c2O)OC(C)(C)C=C3)c1O [Rottlerin (Mallotoxin)] — the same, 2

molecular target: plurality of kinases (Table 5) (Homo sapiens, UniProt P07949); experiment: as above; type: biochemical; details: plate B7; inhibitor 100 uM
Sequence (P07949 29-1114): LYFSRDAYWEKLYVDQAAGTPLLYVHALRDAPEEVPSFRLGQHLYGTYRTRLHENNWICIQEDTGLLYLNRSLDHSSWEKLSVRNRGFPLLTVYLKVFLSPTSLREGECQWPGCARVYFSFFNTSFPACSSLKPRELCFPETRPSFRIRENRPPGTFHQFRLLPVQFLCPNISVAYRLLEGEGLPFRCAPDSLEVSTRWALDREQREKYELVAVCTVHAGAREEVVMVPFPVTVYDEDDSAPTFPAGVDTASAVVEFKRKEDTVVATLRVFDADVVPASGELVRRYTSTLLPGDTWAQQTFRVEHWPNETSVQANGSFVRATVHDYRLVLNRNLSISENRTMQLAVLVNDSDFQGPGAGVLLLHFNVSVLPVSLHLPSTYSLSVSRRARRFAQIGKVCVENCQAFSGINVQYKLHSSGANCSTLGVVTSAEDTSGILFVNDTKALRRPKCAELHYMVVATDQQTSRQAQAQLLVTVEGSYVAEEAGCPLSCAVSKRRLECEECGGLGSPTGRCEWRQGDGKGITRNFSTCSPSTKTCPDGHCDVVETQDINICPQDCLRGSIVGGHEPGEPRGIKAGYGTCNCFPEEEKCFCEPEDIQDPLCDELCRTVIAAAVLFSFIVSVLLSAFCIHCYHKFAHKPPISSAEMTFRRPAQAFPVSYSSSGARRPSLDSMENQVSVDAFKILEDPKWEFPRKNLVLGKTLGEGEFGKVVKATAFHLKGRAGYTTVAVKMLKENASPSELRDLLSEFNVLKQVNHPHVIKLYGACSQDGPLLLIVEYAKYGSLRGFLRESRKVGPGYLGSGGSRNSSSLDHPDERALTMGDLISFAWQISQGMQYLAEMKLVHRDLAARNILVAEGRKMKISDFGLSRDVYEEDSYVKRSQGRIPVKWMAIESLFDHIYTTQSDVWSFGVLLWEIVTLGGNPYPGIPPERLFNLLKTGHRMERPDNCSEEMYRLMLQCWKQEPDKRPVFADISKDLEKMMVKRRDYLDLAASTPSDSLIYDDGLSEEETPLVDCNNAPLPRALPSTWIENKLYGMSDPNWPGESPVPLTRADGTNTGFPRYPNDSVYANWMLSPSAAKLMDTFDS

Point of comparison: `O=S(=O)(NCCNC/C=C/c1ccc(Br)cc1)c1cccc2cnccc12` [H-89], “Inhibition level, RET” value 0. Against it:
- COc1cc2ncnc(Nc3cccc(Cl)c3)c2cc1OC [AG 1478] — higher, 2
- CC(C)(C)n1nc(-c2ccc(Cl)cc2)c2c(N)ncnc21 [PP2] — higher, 2
- CC(=O)c1c(O)c(C)c(O)c(Cc2c(O)c3c(c(C(=O)/C=C/c4ccccc4)c2O)OC(C)(C)C=C3)c1O [Rottlerin (Mallotoxin)] — the same, 0

molecular target: plurality of kinases (Table 5) (Homo sapiens, UniProt P21802); experiment: as above; type: biochemical; details: plate B4; inhibitor 100 uM
Sequence (P21802 22-821): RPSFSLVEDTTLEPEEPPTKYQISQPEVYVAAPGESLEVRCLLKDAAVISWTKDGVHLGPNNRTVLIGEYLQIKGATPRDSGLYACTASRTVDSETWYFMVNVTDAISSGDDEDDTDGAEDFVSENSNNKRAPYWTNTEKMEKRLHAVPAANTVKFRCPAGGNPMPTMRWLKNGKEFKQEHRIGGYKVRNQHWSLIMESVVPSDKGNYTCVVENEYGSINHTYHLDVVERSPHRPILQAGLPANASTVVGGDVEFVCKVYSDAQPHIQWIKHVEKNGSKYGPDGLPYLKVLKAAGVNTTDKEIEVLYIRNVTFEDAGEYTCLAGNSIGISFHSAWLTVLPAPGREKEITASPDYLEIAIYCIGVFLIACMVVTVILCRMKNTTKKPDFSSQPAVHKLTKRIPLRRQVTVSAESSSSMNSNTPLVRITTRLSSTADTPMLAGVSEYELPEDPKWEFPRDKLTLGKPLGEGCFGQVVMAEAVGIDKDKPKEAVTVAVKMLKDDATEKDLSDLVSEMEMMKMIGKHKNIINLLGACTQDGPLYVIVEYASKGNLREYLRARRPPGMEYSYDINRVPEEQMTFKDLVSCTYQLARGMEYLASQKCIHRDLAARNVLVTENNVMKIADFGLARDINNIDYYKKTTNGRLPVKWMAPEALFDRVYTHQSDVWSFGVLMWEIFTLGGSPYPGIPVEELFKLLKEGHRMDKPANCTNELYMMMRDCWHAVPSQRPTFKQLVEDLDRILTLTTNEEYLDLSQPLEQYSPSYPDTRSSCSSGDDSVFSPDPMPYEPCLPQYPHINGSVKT

Point of comparison: `O=S(=O)(NCCNC/C=C/c1ccc(Br)cc1)c1cccc2cnccc12` [H-89], “Inhibition level, FGFR2” value 2. Against it:
- COc1cc2ncnc(Nc3cccc(Cl)c3)c2cc1OC [AG 1478] — the same, 2
- CC(C)(C)n1nc(-c2ccc(Cl)cc2)c2c(N)ncnc21 [PP2] — the same, 2
- O=c1c(O)c(-c2ccc(O)c(O)c2)oc2cc(O)cc(O)c12 [Quercetin] — lower, 0
- CC(=O)c1c(O)c(C)c(O)c(Cc2c(O)c3c(c(C(=O)/C=C/c4ccccc4)c2O)OC(C)(C)C=C3)c1O [Rottlerin (Mallotoxin)] — lower, 0

same assay, conditions: plate G8; inhibitor 100 uM

Point of comparison: `O=S(=O)(NCCNC/C=C/c1ccc(Br)cc1)c1cccc2cnccc12` [H-89], “Inhibition level, FGFR2” value 2. Against it:
- COc1cc2ncnc(Nc3cccc(Cl)c3)c2cc1OC [AG 1478] — the same, 2
- CC(C)(C)n1nc(-c2ccc(Cl)cc2)c2c(N)ncnc21 [PP2] — the same, 2
- O=c1c(O)c(-c2ccc(O)c(O)c2)oc2cc(O)cc(O)c12 [Quercetin] — lower, 0
- CC(=O)c1c(O)c(C)c(O)c(Cc2c(O)c3c(c(C(=O)/C=C/c4ccccc4)c2O)OC(C)(C)C=C3)c1O [Rottlerin (Mallotoxin)] — the same, 2

molecular target: T1, plurality of kinases (Table 5) (Homo sapiens, UniProt Q9UQB9); experiment: as above; type: biochemical; details: plate G11; inhibitor 100 uM
T1 sequence (Q9UQB9 1-309): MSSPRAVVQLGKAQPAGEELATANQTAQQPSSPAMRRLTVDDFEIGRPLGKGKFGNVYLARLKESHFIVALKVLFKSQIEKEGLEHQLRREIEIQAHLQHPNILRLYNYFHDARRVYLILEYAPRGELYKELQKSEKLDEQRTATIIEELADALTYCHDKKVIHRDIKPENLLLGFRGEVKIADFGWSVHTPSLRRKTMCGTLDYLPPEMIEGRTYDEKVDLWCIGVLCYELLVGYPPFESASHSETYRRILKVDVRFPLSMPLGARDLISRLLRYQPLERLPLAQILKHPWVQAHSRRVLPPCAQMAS

Point of comparison: `CC(=O)c1c(O)c(C)c(O)c(Cc2c(O)c3c(c(C(=O)/C=C/c4ccccc4)c2O)OC(C)(C)C=C3)c1O` [Rottlerin (Mallotoxin)], “Inhibition level, STK13” value 1. Against it:
- COc1cc2ncnc(Nc3cccc(Cl)c3)c2cc1OC [AG 1478] — the same, 1
- O=S(=O)(NCCNC/C=C/c1ccc(Br)cc1)c1cccc2cnccc12 [H-89] — the same, 1
- CC(C)(C)n1nc(-c2ccc(Cl)cc2)c2c(N)ncnc21 [PP2] — higher, 2
- O=c1c(O)c(-c2ccc(O)c(O)c2)oc2cc(O)cc(O)c12 [Quercetin] — higher, 2

molecular target: plurality of kinases (Table 5) (Homo sapiens, UniProt P00519); experiment: as above; type: biochemical; details: plate B6; inhibitor 100 uM
Sequence (P00519 whole entry): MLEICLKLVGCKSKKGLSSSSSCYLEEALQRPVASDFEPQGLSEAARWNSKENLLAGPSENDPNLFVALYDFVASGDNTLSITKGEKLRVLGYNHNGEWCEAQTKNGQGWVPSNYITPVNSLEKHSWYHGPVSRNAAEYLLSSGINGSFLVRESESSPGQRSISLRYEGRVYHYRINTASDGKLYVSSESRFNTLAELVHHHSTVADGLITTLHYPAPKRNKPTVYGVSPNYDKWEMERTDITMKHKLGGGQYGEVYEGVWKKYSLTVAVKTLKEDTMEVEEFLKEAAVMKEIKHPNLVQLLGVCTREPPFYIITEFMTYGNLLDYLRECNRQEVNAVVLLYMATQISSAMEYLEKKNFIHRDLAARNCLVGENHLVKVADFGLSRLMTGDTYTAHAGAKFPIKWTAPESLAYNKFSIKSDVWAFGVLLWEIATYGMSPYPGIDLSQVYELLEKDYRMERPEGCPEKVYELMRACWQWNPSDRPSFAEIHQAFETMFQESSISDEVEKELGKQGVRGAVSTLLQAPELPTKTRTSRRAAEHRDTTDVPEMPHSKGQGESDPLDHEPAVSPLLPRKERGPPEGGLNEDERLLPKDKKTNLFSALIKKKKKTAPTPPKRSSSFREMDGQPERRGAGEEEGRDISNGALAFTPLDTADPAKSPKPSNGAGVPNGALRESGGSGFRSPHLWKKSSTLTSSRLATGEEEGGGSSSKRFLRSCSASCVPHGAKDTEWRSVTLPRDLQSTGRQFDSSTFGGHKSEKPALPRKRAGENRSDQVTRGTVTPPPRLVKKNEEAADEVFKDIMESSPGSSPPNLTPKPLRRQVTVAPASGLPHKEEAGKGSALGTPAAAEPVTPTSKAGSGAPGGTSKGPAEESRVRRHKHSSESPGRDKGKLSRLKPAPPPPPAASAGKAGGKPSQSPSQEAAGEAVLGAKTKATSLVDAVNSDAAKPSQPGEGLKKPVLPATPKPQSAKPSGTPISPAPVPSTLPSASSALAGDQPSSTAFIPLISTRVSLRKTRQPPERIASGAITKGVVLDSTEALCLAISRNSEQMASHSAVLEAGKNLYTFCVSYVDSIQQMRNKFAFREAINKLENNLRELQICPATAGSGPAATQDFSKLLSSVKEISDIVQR

Point of comparison: `COc1cc2ncnc(Nc3cccc(Cl)c3)c2cc1OC` [AG 1478], “Inhibition level, ABL1” value 1. Against it:
- O=S(=O)(NCCNC/C=C/c1ccc(Br)cc1)c1cccc2cnccc12 [H-89] — lower, 0
- CC(=O)c1c(O)c(C)c(O)c(Cc2c(O)c3c(c(C(=O)/C=C/c4ccccc4)c2O)OC(C)(C)C=C3)c1O [Rottlerin (Mallotoxin)] — lower, 0

molecular target: plurality of kinases (Table 5) (Homo sapiens, UniProt O75914); experiment: as above; type: biochemical; details: plate D4; inhibitor 100 uM
Sequence (O75914 whole entry): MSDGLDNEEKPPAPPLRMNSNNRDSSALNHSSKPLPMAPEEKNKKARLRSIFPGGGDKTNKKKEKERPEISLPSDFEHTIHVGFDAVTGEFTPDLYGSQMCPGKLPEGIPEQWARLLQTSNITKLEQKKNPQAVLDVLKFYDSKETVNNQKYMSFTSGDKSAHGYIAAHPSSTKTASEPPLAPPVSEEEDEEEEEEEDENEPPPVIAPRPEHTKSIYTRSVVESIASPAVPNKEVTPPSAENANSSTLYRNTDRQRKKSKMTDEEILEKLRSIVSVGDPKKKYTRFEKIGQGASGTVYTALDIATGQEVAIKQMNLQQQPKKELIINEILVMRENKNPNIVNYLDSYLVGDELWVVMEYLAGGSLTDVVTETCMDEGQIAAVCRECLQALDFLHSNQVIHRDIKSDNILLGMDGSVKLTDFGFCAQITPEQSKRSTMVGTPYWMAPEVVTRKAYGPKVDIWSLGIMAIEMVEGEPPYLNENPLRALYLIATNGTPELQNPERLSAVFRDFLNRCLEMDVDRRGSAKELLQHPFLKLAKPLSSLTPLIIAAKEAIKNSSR

Point of comparison: `CC(C)(C)n1nc(-c2ccc(Cl)cc2)c2c(N)ncnc21` [PP2], “Inhibition level, PAK3” value 2. Against it:
- COc1cc2ncnc(Nc3cccc(Cl)c3)c2cc1OC [AG 1478] — the same, 2
- O=S(=O)(NCCNC/C=C/c1ccc(Br)cc1)c1cccc2cnccc12 [H-89] — the same, 2
- O=c1c(O)c(-c2ccc(O)c(O)c2)oc2cc(O)cc(O)c12 [Quercetin] — the same, 2
- CC(=O)c1c(O)c(C)c(O)c(Cc2c(O)c3c(c(C(=O)/C=C/c4ccccc4)c2O)OC(C)(C)C=C3)c1O [Rottlerin (Mallotoxin)] — lower, 0

molecular target: T2, plurality of kinases (Table 5) (Homo sapiens, UniProt P29323); experiment: as above; type: biochemical; details: plate E5; inhibitor 100 uM
T2 sequence (P29323 19-1055): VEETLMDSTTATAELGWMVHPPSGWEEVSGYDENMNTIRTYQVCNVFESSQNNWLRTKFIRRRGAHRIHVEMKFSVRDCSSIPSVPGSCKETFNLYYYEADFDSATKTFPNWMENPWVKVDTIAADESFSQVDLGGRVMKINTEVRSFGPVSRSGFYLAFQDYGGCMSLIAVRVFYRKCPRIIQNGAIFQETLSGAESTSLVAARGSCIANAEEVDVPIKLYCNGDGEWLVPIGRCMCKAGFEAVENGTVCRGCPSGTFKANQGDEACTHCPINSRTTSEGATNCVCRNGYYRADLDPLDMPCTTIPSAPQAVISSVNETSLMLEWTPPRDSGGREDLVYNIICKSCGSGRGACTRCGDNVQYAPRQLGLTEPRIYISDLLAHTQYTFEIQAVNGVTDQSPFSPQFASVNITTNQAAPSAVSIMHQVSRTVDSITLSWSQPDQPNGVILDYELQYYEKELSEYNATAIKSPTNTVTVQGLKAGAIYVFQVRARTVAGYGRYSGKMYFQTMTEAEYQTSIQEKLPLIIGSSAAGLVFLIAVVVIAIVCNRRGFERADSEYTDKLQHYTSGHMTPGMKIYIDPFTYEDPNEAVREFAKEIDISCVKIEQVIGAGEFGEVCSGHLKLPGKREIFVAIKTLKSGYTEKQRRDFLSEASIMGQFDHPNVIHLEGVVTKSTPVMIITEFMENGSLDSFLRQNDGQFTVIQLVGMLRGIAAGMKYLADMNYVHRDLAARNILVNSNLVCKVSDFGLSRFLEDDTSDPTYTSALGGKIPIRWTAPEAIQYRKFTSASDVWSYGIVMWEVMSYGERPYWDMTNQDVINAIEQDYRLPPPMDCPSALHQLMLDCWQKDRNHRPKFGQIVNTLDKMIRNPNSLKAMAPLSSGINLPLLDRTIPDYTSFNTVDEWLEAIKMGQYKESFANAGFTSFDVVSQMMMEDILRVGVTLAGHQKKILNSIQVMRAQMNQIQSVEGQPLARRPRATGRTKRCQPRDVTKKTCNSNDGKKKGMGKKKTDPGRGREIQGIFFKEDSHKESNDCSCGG

Point of comparison: `CC(C)(C)n1nc(-c2ccc(Cl)cc2)c2c(N)ncnc21` [PP2], “Inhibition level, EPHB2” value 2. Against it:
- COc1cc2ncnc(Nc3cccc(Cl)c3)c2cc1OC [AG 1478] — the same, 2
- O=S(=O)(NCCNC/C=C/c1ccc(Br)cc1)c1cccc2cnccc12 [H-89] — the same, 2
- O=c1c(O)c(-c2ccc(O)c(O)c2)oc2cc(O)cc(O)c12 [Quercetin] — the same, 2
- CC(=O)c1c(O)c(C)c(O)c(Cc2c(O)c3c(c(C(=O)/C=C/c4ccccc4)c2O)OC(C)(C)C=C3)c1O [Rottlerin (Mallotoxin)] — the same, 2

molecular target: T3, plurality of kinases (Table 5) (Homo sapiens, UniProt O14965); experiment: as above; type: biochemical; details: plate C6; inhibitor 100 uM
T3 sequence (O14965 1-403): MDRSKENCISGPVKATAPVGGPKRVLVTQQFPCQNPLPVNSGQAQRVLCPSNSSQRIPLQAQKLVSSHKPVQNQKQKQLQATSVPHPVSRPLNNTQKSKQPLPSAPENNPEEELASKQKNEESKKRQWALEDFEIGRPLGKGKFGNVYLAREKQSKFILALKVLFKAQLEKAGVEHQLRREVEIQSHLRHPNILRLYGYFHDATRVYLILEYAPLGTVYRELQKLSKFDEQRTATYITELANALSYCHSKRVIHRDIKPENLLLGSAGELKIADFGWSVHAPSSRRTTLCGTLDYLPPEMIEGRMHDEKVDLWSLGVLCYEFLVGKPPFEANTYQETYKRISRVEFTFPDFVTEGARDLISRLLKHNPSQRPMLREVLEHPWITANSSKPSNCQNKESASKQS

Point of comparison: `COc1cc2ncnc(Nc3cccc(Cl)c3)c2cc1OC` [AG 1478], “Inhibition level, STK6” value 0. Against it:
- O=S(=O)(NCCNC/C=C/c1ccc(Br)cc1)c1cccc2cnccc12 [H-89] — the same, 0
- CC(C)(C)n1nc(-c2ccc(Cl)cc2)c2c(N)ncnc21 [PP2] — higher, 2
- CC(=O)c1c(O)c(C)c(O)c(Cc2c(O)c3c(c(C(=O)/C=C/c4ccccc4)c2O)OC(C)(C)C=C3)c1O [Rottlerin (Mallotoxin)] — higher, 2

molecular target: plurality of kinases (Table 5) (Homo sapiens, UniProt Q00536); experiment: as above; type: biochemical; details: plate A3; inhibitor 100 uM
Sequence (Q00536 whole entry): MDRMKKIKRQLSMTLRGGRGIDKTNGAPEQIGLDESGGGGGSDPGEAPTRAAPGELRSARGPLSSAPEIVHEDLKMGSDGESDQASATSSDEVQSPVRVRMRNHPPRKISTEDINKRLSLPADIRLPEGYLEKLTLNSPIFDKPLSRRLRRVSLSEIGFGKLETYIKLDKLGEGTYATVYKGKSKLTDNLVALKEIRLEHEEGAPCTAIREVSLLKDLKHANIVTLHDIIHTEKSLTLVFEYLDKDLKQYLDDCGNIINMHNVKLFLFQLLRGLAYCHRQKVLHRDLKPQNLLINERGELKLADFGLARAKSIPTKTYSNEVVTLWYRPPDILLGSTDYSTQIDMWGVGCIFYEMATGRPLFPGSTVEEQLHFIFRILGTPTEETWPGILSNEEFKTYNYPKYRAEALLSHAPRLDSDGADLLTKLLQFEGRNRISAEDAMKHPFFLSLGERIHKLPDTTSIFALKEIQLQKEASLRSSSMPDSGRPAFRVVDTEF

Point of comparison: `CC(C)(C)n1nc(-c2ccc(Cl)cc2)c2c(N)ncnc21` [PP2], “Inhibition level, PCTK1” value 1. Against it:
- COc1cc2ncnc(Nc3cccc(Cl)c3)c2cc1OC [AG 1478] — lower, 0
- O=S(=O)(NCCNC/C=C/c1ccc(Br)cc1)c1cccc2cnccc12 [H-89] — higher, 2
- O=c1c(O)c(-c2ccc(O)c(O)c2)oc2cc(O)cc(O)c12 [Quercetin] — lower, 0
- CC(=O)c1c(O)c(C)c(O)c(Cc2c(O)c3c(c(C(=O)/C=C/c4ccccc4)c2O)OC(C)(C)C=C3)c1O [Rottlerin (Mallotoxin)] — lower, 0
